Target: IscU (Azotobacter vinelandii, UniProt O31270)
Assay: UV/Vis absorption and visible CD during in vitro Fe-S cluster assembly
Format: binding
Conditions: anaerobic, IscS, Cys, DTT, cluster assembled in situ

IscU, sequence (O31270 whole entry): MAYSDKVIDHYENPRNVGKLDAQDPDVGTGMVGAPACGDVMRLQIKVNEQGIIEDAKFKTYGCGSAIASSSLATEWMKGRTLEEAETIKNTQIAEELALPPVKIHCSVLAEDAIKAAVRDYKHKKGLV

In the case of `[S]1[Fe][S][Fe]1` [[2Fe-2S] cluster], the “UV/Vis absorption and visible CD during in vitro Fe-S cluster assembly” value is reported as “shows the formation of the [2Fe-2S] cluster as previously reported for IscU (A)”.
